Experimental findings from ChEMBL document CHEMBL1909046, “DrugMatrix in vitro pharmacology data” are described below.

In experiment [1] the target is T1, Alpha-2C adrenergic receptor (Homo sapiens, UniProt P18825).
T1 sequence (P18825 whole entry): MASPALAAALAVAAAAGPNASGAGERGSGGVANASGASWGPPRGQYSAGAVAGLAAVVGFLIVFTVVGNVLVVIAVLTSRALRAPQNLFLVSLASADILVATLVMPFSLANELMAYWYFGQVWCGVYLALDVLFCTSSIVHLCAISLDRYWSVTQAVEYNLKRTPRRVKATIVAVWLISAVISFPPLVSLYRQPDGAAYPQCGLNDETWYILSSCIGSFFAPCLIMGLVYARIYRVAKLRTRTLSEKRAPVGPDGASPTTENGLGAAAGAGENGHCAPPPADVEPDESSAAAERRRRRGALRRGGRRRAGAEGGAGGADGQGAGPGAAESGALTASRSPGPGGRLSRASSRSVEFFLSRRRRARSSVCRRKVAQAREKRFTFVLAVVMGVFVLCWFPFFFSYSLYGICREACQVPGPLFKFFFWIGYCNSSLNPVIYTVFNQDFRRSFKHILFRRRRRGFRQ
In words: DRUGMATRIX: Adrenergic Alpha-2C radioligand binding (ligand: [3H] MK-912). The experiment is classed as cell membranes, Sf9, Membrane. The note with it: sf9.

Experiment [2] has as its target Aldo-keto reductase family 1 member B1 (Rattus norvegicus, UniProt P07943). The experiment can be described thus: biochemical. The experiment is classed as tissue-based, Lens of camera-type eye.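 Further: inhibition of aldose reductase enzyme activity, measured with DL-glyceraldehyde as the substrate; in other assays of this panel Not Active means under 50% inhibition at 10 µM.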
In experiment [3] the target is C-C chemokine receptor type 2 (Homo sapiens, UniProt P41597). The experiment is classed as cell membranes, CHO-K1, Membrane. The note with it: cho-k1. Further: in other assays of this panel Not Active means under 50% inhibition at 10 µM.
The nature of experiment [4]: DRUGMATRIX: Glutamate, NMDA, Phencyclidine radioligand binding (ligand: [3H] TCP). The note with it: Not Active = under 50% inhibition at 10 µM. It counts as cell membranes, Rattus norvegicus, Wistar, Cerebral cortex, Membrane.
The nature of experiment [5]: DRUGMATRIX: Potassium Channel [KATP] radioligand binding (ligand: [3H] Glyburide). The note with it: hit-t15, Not Active = under 50% inhibition at 10 µM. It counts as cell membranes, Membrane.

Usually IC50 stands for the midpoint of a concentration-inhibition curve. For orientation: Ki means a measure of affinity in units of concentration, obtained from inhibition or displacement.

Sequence of C-C chemokine receptor type 2 (P41597 whole entry): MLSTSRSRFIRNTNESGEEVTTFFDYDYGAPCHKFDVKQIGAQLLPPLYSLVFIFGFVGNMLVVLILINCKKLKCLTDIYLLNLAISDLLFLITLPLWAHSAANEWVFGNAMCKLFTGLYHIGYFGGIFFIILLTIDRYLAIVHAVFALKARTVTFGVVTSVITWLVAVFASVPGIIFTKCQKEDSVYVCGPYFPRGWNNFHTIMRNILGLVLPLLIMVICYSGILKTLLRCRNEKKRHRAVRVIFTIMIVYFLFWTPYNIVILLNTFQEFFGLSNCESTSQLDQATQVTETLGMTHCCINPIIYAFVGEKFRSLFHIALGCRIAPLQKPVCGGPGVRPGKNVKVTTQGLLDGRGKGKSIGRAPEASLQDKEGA

For `CCC(=O)O[C@H]1[C@H](O[C@@H]2[C@@H](C)[C@H](O[C@H]3C[C@@](C)(OC)[C@@H](O)[C@H](C)O3)[C@@H](C)C(=O)O[C@H](CC)[C@@](C)(O)[C@H](O)[C@@H](C)C(=O)[C@H](C)C[C@@]2(C)O)O[C@H](C)C[C@@H]1N(C)C` [ERYTHROMYCIN PROPIONATE], the IC50 result in experiment [1], in experiment [2], in experiment [3], in experiment [4] and in experiment [5] was “Not Active” throughout. For the same compound, the Ki result in experiment [4] and in experiment [5] was “Not Active” throughout.
For `C=C(CC)C(=O)c1ccc(OCC(=O)O)c(Cl)c1Cl` [ETHACRYNIC ACID], the IC50 entry in experiment [1] was “Not Active”; in experiment [2] (read-out: IC50) it was 1150 nM; in experiment [3], “Not Active”; in experiment [4], “Not Active”; in experiment [5], “Not Active”. For the same compound, the inhibition constant Ki entry in experiment [4] and in experiment [5] was “Not Active” throughout.
Consider `C#C[C@]1(O)CC[C@H]2[C@@H]3CCc4cc(O)ccc4[C@H]3CC[C@@]21C` [ETHINYL ESTRADIOL], for which the IC50 entry in experiment [1], in experiment [2], in experiment [3], in experiment [4] and in experiment [5] was “Not Active” each time. Further, the Ki entry in experiment [4] and in experiment [5] was “Not Active” in each case.
Take `OCCO` [ETHYLENE GLYCOL]: the IC50 entry in experiment [1], in experiment [2], in experiment [3], in experiment [4] and in experiment [5] was “Not Active” in each case. In addition, the Ki result in experiment [4] and in experiment [5] was “Not Active” each time.
For `CC(=O)OCC(CCn1cnc2cnc(N)nc21)COC(C)=O` [FAMCICLOVIR], the IC50 result in experiment [1], in experiment [2], in experiment [3], in experiment [4] and in experiment [5] was “Not Active” throughout. Besides, the Ki entry in experiment [4] and in experiment [5] was “Not Active” in each case.
On to `O=C(O)Cc1ccc(-c2ccccc2)cc1` [FELBINAC], for which the IC50 entry in experiment [1], in experiment [2], in experiment [3], in experiment [4] and in experiment [5] was “Not Active” throughout. For the same compound, the Ki entry in experiment [4] and in experiment [5] was “Not Active” throughout.
Regarding `CCOC(=O)C1=C(C)NC(C)=C(C(=O)OC)C1c1cccc(Cl)c1Cl` (stereo not drawn) [FELODIPINE], the IC50 result in experiment [1], in experiment [2], in experiment [3], in experiment [4] and in experiment [5] was “Not Active” each time. Besides, the Ki result in experiment [4] and in experiment [5] was “Not Active” each time.
With `CC(C(=O)O)c1ccc(-c2ccccc2)c(F)c1` (stereo not drawn) [FLURBIPROFEN], the IC50 result in experiment [1], in experiment [2], in experiment [3], in experiment [4] and in experiment [5] was “Not Active” in each case. Also, the Ki result in experiment [4] and in experiment [5] was “Not Active” in each case.
As to `Cc1cn[nH]c1` [FOMEPIZOLE], the IC50 result in experiment [1], in experiment [2], in experiment [3], in experiment [4] and in experiment [5] was “Not Active” in each case. Moreover, the Ki entry in experiment [4] and in experiment [5] was “Not Active” each time.
For the compound `NC[C@@H]1O[C@H](O[C@H]2[C@@H](O)[C@H](O[C@@H]3[C@@H](O)[C@H](N)C[C@H](N)[C@H]3O[C@H]3O[C@H](CN)[C@@H](O)[C@H](O)[C@H]3N)O[C@@H]2CO)[C@H](N)[C@@H](O)[C@@H]1O` [FRAMYCETIN], the IC50 entry in experiment [1], in experiment [2], in experiment [3], in experiment [4] and in experiment [5] was “Not Active” throughout. The Ki entry in experiment [4] and in experiment [5] was “Not Active” throughout.
As to `C[C@H]([C@](O)(Cn1cncn1)c1ccc(F)cc1F)S(C)(=O)=O` [GENACONAZOLE], the IC50 entry in experiment [1], in experiment [2], in experiment [3], in experiment [4] and in experiment [5] was “Not Active” in each case. Also, the Ki result in experiment [4] and in experiment [5] was “Not Active” each time.
Regarding `Cc1cnc(C(=O)NCCc2ccc(S(=O)(=O)NC(=O)NC3CCCCC3)cc2)cn1` [GLIPIZIDE], the IC50 result in experiment [1] is “Not Active”; in experiment [2], “Not Active”; in experiment [3], “Not Active”; in experiment [4] it was “Not Active”; in experiment [5] (read-out: IC50), 398 nM. Also, the Ki result in experiment [4] is “Not Active”; in experiment [5] (read-out: Ki), 45 nM.
`Cc1c(F)c(N2CCNC(C)C2)cc2c1c(=O)c(C(=O)O)cn2C1CC1` (stereo not drawn) [GREPAFLOXACIN]: the IC50 entry in experiment [1], in experiment [2], in experiment [3], in experiment [4] and in experiment [5] was “Not Active” in each case. Further, the Ki result in experiment [4] and in experiment [5] was “Not Active” in each case.
Take `COc1ccccc1OCC(O)CO` (stereo not drawn) [GUAIFENESIN]: the half-maximal inhibitory concentration (IC50) entry in experiment [1], in experiment [2], in experiment [3], in experiment [4] and in experiment [5] was “Not Active” each time. Moreover, the Ki result in experiment [4] and in experiment [5] was “Not Active” each time.
In the case of `C[C@]12CCC(=O)C=C1CC[C@@H]1[C@@H]2[C@@H](O)C[C@@]2(C)[C@H]1CC[C@]2(O)C(=O)CO` [HYDROCORTISONE], the IC50 result in experiment [1], in experiment [2], in experiment [3], in experiment [4] and in experiment [5] was “Not Active” throughout. For the same compound, the Ki entry in experiment [4] and in experiment [5] was “Not Active” in each case.
Regarding `C/C=C\c1ccc(O)c(OC)c1` [ISOEUGENOL], the IC50 result in experiment [1], in experiment [2], in experiment [3], in experiment [4] and in experiment [5] was “Not Active” in each case. In addition, the Ki result in experiment [4] and in experiment [5] was “Not Active” throughout.
For the compound `NC[C@H]1O[C@H](O[C@H]2[C@H](O)[C@@H](O[C@H]3O[C@H](CO)[C@@H](O)[C@H](N)[C@H]3O)[C@H](N)C[C@@H]2N)[C@H](O)[C@@H](O)[C@@H]1O` [KANAMYCIN], the IC50 entry in experiment [1], in experiment [2], in experiment [3], in experiment [4] and in experiment [5] was “Not Active” each time. The Ki entry in experiment [4] and in experiment [5] was “Not Active” throughout.
In the case of `CC(C(=O)O)c1ccc(CC2CCCC2=O)cc1` (stereo not drawn) [LOXOPROFEN], the IC50 result in experiment [1], in experiment [2], in experiment [3], in experiment [4] and in experiment [5] was “Not Active” throughout. In addition, the Ki entry in experiment [4] and in experiment [5] was “Not Active” each time.
As to `Cc1cccc(Nc2ccccc2C(=O)O)c1C` [MEFENAMIC ACID], the IC50 entry in experiment [1], in experiment [2], in experiment [3], in experiment [4] and in experiment [5] was “Not Active” throughout. In addition, the Ki result in experiment [4] and in experiment [5] was “Not Active” throughout.
For the compound `CC(=O)O[C@]1(C(C)=O)CC[C@H]2[C@@H]3C=C(C)C4=CC(=O)CC[C@]4(C)[C@H]3CC[C@@]21C` [MEGESTROL ACETATE], the IC50 result in experiment [1], in experiment [2], in experiment [3], in experiment [4] and in experiment [5] was “Not Active” each time. The Ki result in experiment [4] and in experiment [5] was “Not Active” each time.
`COc1ccccc1OCC(O)COC(N)=O` (stereo not drawn) [METHOCARBAMOL]: the IC50 entry in experiment [1], in experiment [2], in experiment [3], in experiment [4] and in experiment [5] was “Not Active” throughout. In addition, the Ki entry in experiment [4] and in experiment [5] was “Not Active” in each case.
Regarding `CN(Cc1cnc2nc(N)nc(N)c2n1)c1ccc(C(=O)N[C@@H](CCC(=O)O)C(=O)O)cc1` [METHOTREXATE], the IC50 entry in experiment [1], in experiment [2], in experiment [3], in experiment [4] and in experiment [5] was “Not Active” each time. The Ki result in experiment [4] and in experiment [5] was “Not Active” each time.
In the case of `COC(=O)c1ccccc1O` [METHYL SALICYLATE], the IC50 result in experiment [1], in experiment [2], in experiment [3], in experiment [4] and in experiment [5] was “Not Active” in each case. The Ki entry in experiment [4] and in experiment [5] was “Not Active” in each case.
Turning to `COc1ccc2cc(CCC(C)=O)ccc2c1` [NABUMETONE], the IC50 entry in experiment [1], in experiment [2], in experiment [3], in experiment [4] and in experiment [5] was “Not Active” in each case. For the same compound, the Ki result in experiment [4] and in experiment [5] was “Not Active” throughout.
